Target: T1, Syk kinase (Homo sapiens, UniProt P43405)
T1 construct: purchased Invitrogen PV3857
Assay: In vitro inhibitory effect on Syk kinase (HTRF enzymatic experiment)
Format: biochemical
Conditions: ATP 2 μM, read-out: IC50 (nM) for inhibition of Syk enzyme
Source text: The interaction between the substrate and the enzyme was detected by HTRF, using the IC50 value of the compound as an indicator to evaluate the inhibitory effect of the compound on Syk kinase.
• Syk kinase (Invitrogen, PV3857) • DTT (Sigma #43815) • ATP (Sigma #A7699) • MgCl2 (Sigma #63020) • MnCl2 (Sigma #M1787) • EDTA (Invitrogen #15575-020) • HEPES Buffer (Invitrogen #15630-080) • HTRF® KinEASE™ TK (Cisbio #62TKOPEC, 20000 tests) • Low volume, 384-well, white polystyrene plate (Greiner #784075) • 384 Well Microplates (Greiner #781946) • Centrifuge (Eppendorf #5810R) • Pipette (Eppendorf) • Pipette (Greiner) • Pipette gun (Eppendorf) • Mutidorp Pipette • POD 810 Plate Assembler Automatic Microplate Pretreatment System • Envision Reader • Experimental Steps and Methods: • a) Compound dilution and plate-making: • 1) The compound powder was weighed, dissolved in a certain amount of DMSO at an initial concentration of 10 mM. • 2) The compound was diluted to a concentration of 0.74 mM, and plated with POD18, 135 nL per well, the starting compound concentration was 10 μM, and there were 11 concentration points, with 3-fold descending serial dilutions. • b) Enzyme-substrate reaction stage: • 1) Preparation and dilution of the experimental buffer: the 5×HTRF Buffer in the kit was diluted to 1×, and specified amounts of DTT and MgCl2 solutions were added for use. • 2) SYK enzyme reaction solution was prepared with 1×HTRF Buffer so that the final reaction concentration of SYK kinase was 0.0156 ng/μL. • 3) TK-Substrate-biotin/ATP mixture was prepared so that the final substrate concentration was controlled at 0.2 μM. ATP concentration was controlled at 2 μM. • 4) The solution and the mixture were added with a Mutidorp pipette, SYK enzyme solution and TK-Substrate-biotin/ATP mixture were each added 5 μL per well, and incubated with 23 solution for 1 hour. • c) Detection stage: • 1) 13.33 mL of ethylenediaminetetraacetic acid solution was added to the detection buffer of the kit, and specified amounts of Eu-labeled antibody and XL-665 were added to prepare the detection solution. • 2) The solution was added with a Mutidorp pipette, 10 μL of detection solution per well, and incubated with 23 solution for 1 hour. The reaction of the enzyme and substrate mixture was stopped. • 3) After centrifugation, the reading was obtained on Envision. • d) Data analyzation: the data was analyzed using XL-Fit and the IC50 value of the compound was calculated.

IC50: 15 nM
Compound: c1cn2c(n1)c(Nc1ccc(N3CCOCC3)cc1)nc1ccc(-c3cn[nH]c3)cc12 [Compound 1]

From patent US12637469B2, “1H-pyrazole derivative and application thereof as dual target inhibitor of Syk and VEGFR2” (Ocumension Therapeutics (Suzhou) Co., Ltd., priority 2020, dated 2026)
